In one assay the test system is N2 C. elegans. Description: Life-extension effect on worm under regular culture conditions. The format is in vivo. The source says: In this example, the biological functions of ergothioneine were investigated using C. elegans as the model system. Using C. elegans as the model has several prominent advantages, including short life cycle, simple experimental manipulation, and rich collection of publicly available genetic mutants (e.g., Caenorhabditis Genetics Center). In addition, its genome comprises ⅔ of human disease-related genes.
(§1) To test the biological effect of ergothioneine, the first set of experiments was to test the toxicity level of ergothioneine on the worm model. In humans, ergothioneine is enriched up to 2 mM concentration in many parts of the body. […] At 150 μM, the lifespan of the wild type worm can be extended by 30-40% (FIG. 2A). Over the last two decades, there is numerous evidence supporting the life-extension effect by caloric restriction from various model systems (yeast, worm, fly, and mouse). Thus, the effect of ergothioneine on worm Eat-2 mutant was also examined.

Another assay has as its system N2 worms. Description: Protective effect under paraquat-induced oxidative stress. The format is in vivo, C. elegans. As to conditions: N2 worms treated with paraquat. How it is done: Encouraged by the clear life-extension effect on worm model under regular culture conditions in the above example, the protective effect of ergothioneine under stresses was examined. In the first experiment, the worm was treated with paraquat to induce oxidative stress. Under the paraquat-induced oxidative stress conditions, N2 worms' life span was decreased by nearly 50% (FIG. 2C vs. FIG. 2A).

For assay [1], the system named is MPTP Parkinson's disease mouse model. Description: MPTP Parkinson's disease mouse model, pole test. As to conditions: mice, 20 mg/Kg MPTP for seven days; ergothioneine 10, 20 mg/kg co-injection or 40 mg/kg in water, 7 days. The format is in vivo. As to the method: Parkinson mouse model was induced by MPTP. Behavior test was done by testing mouse behavior: how long does it take for the mice to climb to the top of a rod. The shorter time they took, the better their health conditions are. After MPTP treatment, mice are clearly much weaker. […] Significance of difference was determined by unpaired two-tailed t-test. ###P<0.05 compared with control, ***P<0.001, ****P<0.0001 compared with MPPP-treated control. 1) Latency test results of control group with no MPTP or ergothioneine; 2) Latency test results of mice treated with 20 mg/Kg of MPTP for seven days; 3) Latency test results of mice treated with 20 mg/Kg of MPTP and 10 mg/kg of ergothioneine (co-injection) for seven days; 4) Latency test results of mice treated with 20 mg/Kg of MPTP and 20 mg/kg of ergothioneine (co-injection) for seven days; 5) Latency test results of mice treated with 20 mg/Kg of MPTP and 40 mg/kg of ergothioneine in water for seven days.

Another assay deals with worm. The assay is described as follows: Protective effect on MPP+ detrimental effect, worm survival rate. The format is in vivo. As to conditions: 0.75 mM of MPTP plus 400 μM ergothioneine; ~50% without ergothioneine. How it is done: However, ergothioneine can offer significant protection. The last column is the worm with no ergothioneine or MPTP treatment. The first column is the worm survival rate after treating with 0.75 mM of MPTP.

Assay [2] has as its system a-Synuclein Overexpression Worm Model. Description: Heat shock experiment in α-synuclein overexpression worm Parkinson's disease model. The format is in vivo. As to conditions: 1.6 mM, 3 hours without. As to the method:
FIGS. 13A and B show Protective Effect for Heat-shock for Both Wild-type and a-Synuclein Overexpression Worm Model (Parkinson's disease). Heat shock experiment. α-synuclein was expressed to create worm parkinson's disease model on worm. […] With 1.6 mM of ergothioneine, 50% survival time increased to 8 hours.

In the next assay the test system is worm Eat-2 mutant. Description: Life-extension effect on caloric-restriction worm mutant. The conditions noted are these: Eat-2 mutant (partial starvation). The format is in vivo, C. elegans. How it is done:
as §1

Assay [3] has as its system MPTP Parkinson's disease mouse model. Description: MPTP Parkinson's disease mouse model, latency test on rotatory plate/rod. The format is in vivo. The conditions noted are these: mice, 20 mg/Kg MPTP for seven days; ergothioneine 10, 20 mg/kg co-injection or 40 mg/kg in water, 7 days. How it is done:
Parkinson mouse model was induced by 1-methyl-4-phenyl-1,2,3,6-tetrahydropyridine (MPTP), which induced toxicity to dopaminergic neurons (latency test). Behavior test was done by testing mouse behavior: how long can they hold on rotatory plate/rod. The longer they stay, the better their health conditions. After MPTP treatment, mice are clearly much weaker. […] Significance of difference was determined by unpaired two-tailed t-test. #P<0.05 compared with control, *P<0.05, **P<0.01, ****P<0.0001 compared with MPPP-treated control. 1) Latency test results of control group with no MPTP or ergothioneine; 2) Latency test results of mice treated with 20 mg/Kg of MPTP for seven days; 3) Latency test results of mice treated with 20 mg/Kg of MPTP and 10 mg/kg of ergothioneine (co-injection) for seven days; 4) Latency test results of mice treated with 20 mg/Kg of MPTP and 20 mg/kg of ergothioneine (co-injection) for seven days; 5) Latency test results of mice treated with 20 mg/Kg of MPTP and 40 mg/kg of ergothioneine in water for seven days.

A further assay concerns N2 worm. The assay is described as follows: Protective effect under heat shock conditions. The format is in vivo, C. elegans. As to conditions: N2 worm moved from 20° C. to 42° C.; a few hundred micromolar; 3 hours without. How it is done: Besides the oxidative stress, the protective effect of ergothioneine for the worm under heat shock conditions was also examined. After the worms were cultured multiple days, they were then moved from 20° C. to 42° C. Under such a heat-shock condition, 50% of the worm died within 3 hours. However, in the presence of a few hundred micromolar concentration of ergothioneine, it extends N2 worm's average survival time from 3 hours to nearly 8-9 hours (FIG. 2D).

In another assay the test system is daf-16 mutant worm. The assay is described as follows: Life-extension effect on daf-16 mutant worm. The format is in vivo, C. elegans. The source says: To address this issue, the large collection of C. elegans mutants in Caenorhabditis Genetics Center was again utilized in this example. Among the mutants examined, the daf-16 mutant results stood out (FIGS. 3A, 3B, and 3C). […] Among genes of the IIS pathway, daf-2 encodes an insulin-like receptor, and it is the starting point of the pathway that eventually leads to daf-16. Daf-16 is the hub, where information from several different pathways merge and then use to regulate many physiological processes. Worm daf-16 mutant has an average life-span that is […] the N2 worm (FIGS. 3A, 3B, and 3C).

The test system of a further assay is mouse. The assay is described as follows: Open field experiment, physical activities of disease group at week #57. The conditions noted are these: mice, week #57, treated vs control disease group. The format is in vivo. The source says:
FIGS. 5A and 5B show the physical activities of untreated disease group and treated disease group at week #57 (open field experiment). A) Real time trace of mouse movement. […] B) Quantitative measurement of the distance each mouse moved during the testing period and the time they spent in the open area.

With `C[N+](C)(C)[C@@H](Cc1c[nH]c(=S)[nH]1)C(=O)[O-]` [ergothioneine], in the assay with N2 C. elegans (N2 C. elegans, concentrations as low as 50 μM), the life-extension effect result is “robust life-extension effect”. Moreover, in the assay with N2 C. elegans (wild type worm, 150 μM), the lifespan extension is on record as 30-40%. Moreover, the “protective effect under oxidative stress” value in the assay with N2 worms is “clearly offers protective effects”. The “pole test (time to climb to the top of a rod)” value in assay [1] was “mice are clearly protected from these detrimental effects”. In the assay with worm, the worm survival rate is roughly 90%. Moreover, the “50% survival time under heat shock” value in assay [2] is 8 h. Besides, in the assay on worm Eat-2 mutant, the “life extension of Eat-2 worm mutant” value was “can further extend the life”. For the same compound, the “latency test (time held on rotatory plate/rod)” value in assay [3] was “mice are clearly protected from these detrimental effects”. In addition, in the assay on N2 worm, the “average survival time under heat shock” value lay within 8 to 9 h. The “life-extension effect on daf-16 mutant” value with daf-16 mutant worm is on record as “the life-extension effect was abolished”. Further, the “physical activities in open field” value with mouse is listed as “demonstrated much more activities”.

The record behind these values is patent US20230110676A1, “Method of Treating Diseases” (priority 2020, published 2023).
